Laboratory results from PMC9250534, “Synthesis and direct assay of large macrocycle diversities by combinatorial late-stage modification at picomole scale” (Nature Communications, 2022).
Values joined by “and” are separate entries in the source; they are usually repeats but may differ in a detail not shown here. Equal values may be shown once. Read-outs that look alike come from different tables or passages of the source.

What was measured:
[1] = target: T1, MDM2 (Homo sapiens, UniProt Q00987); assay: Competition binding of M10 and nutlin-3a (F-M10 or FP53 probe displacement from MDM2, FP); details: for F-M10 displacement (values are anisotropy): F-M10 macrocycle probe; for F-M10 displacement (values are anisotropy) / FP53 displacement (values are anisotropy): duplicates -1/-2; for FP53 displacement (values are anisotropy): FP53 linear peptide probe
T1 sequence (Q00987 whole entry): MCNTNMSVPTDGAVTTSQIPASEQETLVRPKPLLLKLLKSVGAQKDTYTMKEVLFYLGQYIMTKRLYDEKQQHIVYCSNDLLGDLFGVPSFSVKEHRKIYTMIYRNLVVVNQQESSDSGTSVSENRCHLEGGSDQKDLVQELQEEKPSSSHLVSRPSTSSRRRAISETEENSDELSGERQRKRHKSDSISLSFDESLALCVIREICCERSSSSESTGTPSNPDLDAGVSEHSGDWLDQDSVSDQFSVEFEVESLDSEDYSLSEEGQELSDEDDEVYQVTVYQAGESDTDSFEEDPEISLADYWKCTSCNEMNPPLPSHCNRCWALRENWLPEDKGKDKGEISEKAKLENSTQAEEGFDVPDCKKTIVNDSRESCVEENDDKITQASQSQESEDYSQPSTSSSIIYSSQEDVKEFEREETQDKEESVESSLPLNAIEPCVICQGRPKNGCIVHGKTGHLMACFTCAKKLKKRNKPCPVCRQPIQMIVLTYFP
Description: With the fluorescein conjugate, we also performed a competition experiment with nutlin-3a that binds to a defined hydrophobic pocket of MDM2[34] and is a precursor of nutlin-based clinical candidates.
Supplementary Figure 13. Studying the binding site of M10 by competition binding
by fluorescence polarization. The displacement was measured in two independent experiments
The displacement was measured in two

[2] = target: T1, MDM2; assay: MDM2 binding (FP53 displacement) by HPLC fractions of resynthesized hit reactions
Description: For hits from the MDM2 screen, reactions were performed in the same way but at a 50 nmol scale, and purified with the same method but a 10–80% gradient of solvent B and over 22 min. Fractions were lyophilized and dissolved in 40 μL of DMSO, 160 μL of water was added, and 5 μL of each fraction was transferred to a 384-well plate (Nunc, 264705), and 15 μL of premixed MDM2/FP53 peptide were added (final concentrations: 1.2 μM MDM2, 50 nM FP53, 5% DMSO).

[3] = target: T1, MDM2; assay: IC50 of purified MDM2-binding macrocycles, fluorescence polarization competition with FP53; details: for IC50: HPLC-purified macrocycle, FP displacement of fluorescent reporter peptide; for anisotropy: replicates 1-3
Description: Volumes of 5 μL of purified macrocycles (20 mM in DMSO) were serial diluted two-fold in 100% DMSO in a low dead-volume ECHO source plate. Using acoustic droplet transfer, 150 nL of each dilution was transferred to a 384 well low volume polystyrene plate (Nunc, 264705). […] Fluorescence anisotropy was measured as described above. The percentage of bound inhibitor was calculated using the following equation4 %boundinhibitor=N−X/N−P×100 where N is the average anisotropy of the DMSO controls, X is the anisotropy value obtained for each well, and P is the average anisotropy of the unbound probe. The IC50s were determined by plotting the percent of bound inhibitor against the logarithm of the corresponding macrocycle concentration, and the curves were fitted in GraphPad Prism 6 as described above.

[4] = target: T1, MDM2; assay: MDM2 binding screen of Libraries 3 and 4: displacement of fluorescent probe F-M8 at 750 nM macrocycle; details: 750 nM macrocycle; crude reaction; probe F-M8
Procedure, shortened: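 Cyclic peptide scaffolds were acylated in DMSO with carboxylic acids (20 equiv.), HBTU and DABCO for 6 h at room temperature. Reactions were quenched overnight in 100 mM Tris-Cl pH 7.4, 0.01% Tween20. The fluorescein conjugate was also competed with nutlin-3a.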

For nutlin-3a [reference compound], the “competition with fluorescein conjugate of M10 for MDM2 binding” value ([1]; FP competition experiment) was “did not compete”.
For `O=C(NC[C@@H]1NC(=O)[C@H]2CCCN(C2)C(=O)CCSSCCNC(=O)[C@H](Cc2c[nH]c3ccccc23)NC1=O)c1ccc(Cl)cc1` [M7], the “Fraction bound (fraction fluorescent probe displaced)” value (shortened to “Fraction bound”) ([2]; HPLC Fraction 1 of acylation reaction) was 0.06, the “Fraction bound” value ([2]; HPLC Fraction 2 of acylation reaction) was 0.33 and the “Fraction bound” value ([2]; HPLC Fraction 3 of acylation reaction) was 0.08. The “Fraction bound” value ([2]; HPLC Fraction 4 of acylation reaction) was -0.000869, the “Fraction bound” value ([2]; HPLC Fraction 5 of acylation reaction) was -0.0216 and the “Fraction bound” value ([2]; HPLC Fraction 6 of acylation reaction) was 0.02. The “Fraction bound” value ([2]; HPLC Fraction 7 of acylation reaction) was 0.02, the “Fraction bound” value ([2]; HPLC Fraction 8 of acylation reaction) was 0.02 and the “Fraction bound” value ([2]; HPLC Fraction 9 of acylation reaction) was 0.02. The “Fraction bound” value ([2]; HPLC Fraction 10 of acylation reaction) was 0.08, the “Fraction bound” value ([2]; HPLC Fraction 11 of acylation reaction) was -0.000869 and the “Fraction bound” value ([2]; HPLC Fraction 12 of acylation reaction) was -0.06. For the same compound, the “Fraction bound” value ([2]; HPLC Fraction 13 of acylation reaction) was -0.0422, the “Fraction bound” value ([2]; HPLC Fraction 14 of acylation reaction) was 0.29 and the “Fraction bound” value ([2]; HPLC Fraction 15 of acylation reaction) was -0.0216. The “Fraction bound” value ([2]; HPLC Fraction 16 of acylation reaction) was -0.10, the “Fraction bound” value ([2]; HPLC Fraction 17 of acylation reaction) was -0.10 and the “Fraction bound” value ([2]; HPLC Fraction 18 of acylation reaction) was -0.15. The “Fraction bound” value ([2]; HPLC Fraction 19 of acylation reaction) was -0.25, the “Fraction bound” value ([2]; HPLC Fraction 20 of acylation reaction) was -0.21 and the IC50 ([3]; average of 3 replicates, read-out: IC50 Average) was 3.7 µM. The IC50 ([3]; replicate 1, read-out: IC50 Replicate 1) was 3.8 µM, the IC50 ([3]; replicate 2, read-out: IC50 Replicate 2) was 2 µM and the IC50 ([3]; replicate 3, read-out: IC50 Replicate 3) was 5.3 µM. For the same compound, the “displacement of fluorescent peptide probe from MDM2” value ([3]; HPLC-purified macrocycles, FP competition) was “efficiently displaced”, the anisotropy ([3]; Log[Macrocycle] M -4.0) was 39 and 34 and 33 and the anisotropy ([3]; Log[Macrocycle] M -4.3) was 47 and 37 and 40. For the same compound, the anisotropy ([3]; Log[Macrocycle] M -4.6) was 50 and 42 and 45, the anisotropy ([3]; Log[Macrocycle] M -4.9) was 54 and 48 and 49 and the anisotropy ([3]; Log[Macrocycle] M -5.2) was 60 and 47 and 53. The anisotropy ([3]; Log[Macrocycle] M -5.5) was 68 and 53 and 61, the anisotropy ([3]; Log[Macrocycle] M -5.8) was 73 and 55 and 63 and the anisotropy ([3]; Log[Macrocycle] M -6.1) was 81 and 61 and 69. The anisotropy ([3]; Log[Macrocycle] M -6.4) was 87 and 68 and 75, the anisotropy ([3]; Log[Macrocycle] M -6.7) was 89 and 72 and 77 and the anisotropy ([3]; Log[Macrocycle] M -7.0) was 92 and 75 and 82. The anisotropy ([3]; Log[Macrocycle] M -7.3) was 92 and 72 and 85, the anisotropy ([3]; Log[Macrocycle] M -7.6) was 97 and 81 and 87 and the anisotropy ([3]; Log[Macrocycle] M -7.9) was 94 and 83 and 85. The anisotropy ([3]; Log[Macrocycle] M -8.2) was 94 and 79 and 89 and the anisotropy ([3]; Log[Macrocycle] M -8.5) was 96 and 78 and 86.
With `O=C(/C=C/c1ccc2c(c1)OCO2)NC[C@@H]1NC(=O)[C@H]2CCCN(C2)C(=O)CCSSCCNC(=O)[C@H](Cc2c[nH]c3ccccc23)NC1=O` [M10] the “displacement of fluorescent probe from MDM2” value [4] was 84%, the “F-M10 displacement (values are anisotropy)” value (from here on “F-M10 displacement”) ([1]; Log[Inhibitor] M -4.0) was 23 and 19 and the “F-M10 displacement” value ([1]; Log[Inhibitor] M -4.3) was 19 and 11. For the same compound, the “F-M10 displacement” value ([1]; Log[Inhibitor] M -4.6) was 18 and 15, the “F-M10 displacement” value ([1]; Log[Inhibitor] M -4.9) was 18 and 10 and the “F-M10 displacement” value ([1]; Log[Inhibitor] M -5.2) was 14 and 12. For the same compound, the “F-M10 displacement” value ([1]; Log[Inhibitor] M -5.5) was 15 and 12, the “F-M10 displacement” value ([1]; Log[Inhibitor] M -5.8) was 18 and 9 and the “F-M10 displacement” value ([1]; Log[Inhibitor] M -6.1) was 17 and 10. For the same compound, the “F-M10 displacement” value ([1]; Log[Inhibitor] M -6.4) was 20 and 15, the “F-M10 displacement” value ([1]; Log[Inhibitor] M -6.7) was 24 and 19 and the “F-M10 displacement” value ([1]; Log[Inhibitor] M -7.0) was 30 and 21. For the same compound, the “F-M10 displacement” value ([1]; Log[Inhibitor] M -7.3) was 40 and 26, the “F-M10 displacement” value ([1]; Log[Inhibitor] M -7.6) was 46 and 32 and the “F-M10 displacement” value ([1]; Log[Inhibitor] M -7.9) was 52 and 42. The “F-M10 displacement” value ([1]; Log[Inhibitor] M -8.2) was 57 and 39, the “F-M10 displacement” value ([1]; Log[Inhibitor] M -8.5) was 57 and 42 and the “FP53 displacement (values are anisotropy)” value (from here on “FP53 displacement”) ([1]; Log[Inhibitor] M -4.0) was 35 and 39. The “FP53 displacement” value ([1]; Log[Inhibitor] M -4.3) was 34 and 40, the “FP53 displacement” value ([1]; Log[Inhibitor] M -4.6) was 35 and 36 and the “FP53 displacement” value ([1]; Log[Inhibitor] M -4.9) was 31 and 36. The “FP53 displacement” value ([1]; Log[Inhibitor] M -5.2) was 32 and 39, the “FP53 displacement” value ([1]; Log[Inhibitor] M -5.5) was 31 and 40 and the “FP53 displacement” value ([1]; Log[Inhibitor] M -5.8) was 30 and 37. The “FP53 displacement” value ([1]; Log[Inhibitor] M -6.1) was 32 and 36, the “FP53 displacement” value ([1]; Log[Inhibitor] M -6.4) was 31 and 40 and the “FP53 displacement” value ([1]; Log[Inhibitor] M -6.7) was 42 and 51. The “FP53 displacement” value ([1]; Log[Inhibitor] M -7.0) was 51 and 55, the “FP53 displacement” value ([1]; Log[Inhibitor] M -7.3) was 54 and 63 and the “FP53 displacement” value ([1]; Log[Inhibitor] M -7.6) was 60 and 67. For the same compound, the “FP53 displacement” value ([1]; Log[Inhibitor] M -7.9) was 60 and 65, the “FP53 displacement” value ([1]; Log[Inhibitor] M -8.2) was 66 and 67 and the “FP53 displacement” value ([1]; Log[Inhibitor] M -8.5) was 63 and 67.
For Nutlin, the “F-M10 displacement” value ([1]; Log[Inhibitor] M -4.0) was 71 and 53, the “F-M10 displacement” value ([1]; Log[Inhibitor] M -4.3) was 66 and 52 and the “F-M10 displacement” value ([1]; Log[Inhibitor] M -4.6) was 66 and 55. For the same compound, the “F-M10 displacement” value ([1]; Log[Inhibitor] M -4.9) was 62 and 56, the “F-M10 displacement” value ([1]; Log[Inhibitor] M -5.2) was 69 and 55 and the “F-M10 displacement” value ([1]; Log[Inhibitor] M -5.5) was 63 and 51. For the same compound, the “F-M10 displacement” value ([1]; Log[Inhibitor] M -5.8) was 63 and 55, the “F-M10 displacement” value ([1]; Log[Inhibitor] M -6.1) was 68 and 53 and the “F-M10 displacement” value ([1]; Log[Inhibitor] M -6.4) was 65 and 54. For the same compound, the “F-M10 displacement” value ([1]; Log[Inhibitor] M -6.7) was 64 and 54, the “F-M10 displacement” value ([1]; Log[Inhibitor] M -7.0) was 64 and 51 and the “F-M10 displacement” value ([1]; Log[Inhibitor] M -7.3) was 64 and 50. The “F-M10 displacement” value ([1]; Log[Inhibitor] M -7.6) was 67 and 53, the “F-M10 displacement” value ([1]; Log[Inhibitor] M -7.9) was 61 and 50 and the “F-M10 displacement” value ([1]; Log[Inhibitor] M -8.2) was 66 and 47. The “F-M10 displacement” value ([1]; Log[Inhibitor] M -8.5) was 66 and 47, the “FP53 displacement” value ([1]; Log[Inhibitor] M -4.0) was 13 and 15 and the “FP53 displacement” value ([1]; Log[Inhibitor] M -4.3) was 21 and 16. For the same compound, the “FP53 displacement” value ([1]; Log[Inhibitor] M -4.6) was 13 and 14, the “FP53 displacement” value ([1]; Log[Inhibitor] M -4.9) was 14 and 13 and the “FP53 displacement” value ([1]; Log[Inhibitor] M -5.2) was 15 and 11. For the same compound, the “FP53 displacement” value ([1]; Log[Inhibitor] M -5.5) was 15 and 18, the “FP53 displacement” value ([1]; Log[Inhibitor] M -5.8) was 15 and 14 and the “FP53 displacement” value ([1]; Log[Inhibitor] M -6.1) was 19 and 23. The “FP53 displacement” value ([1]; Log[Inhibitor] M -6.4) was 30 and 27, the “FP53 displacement” value ([1]; Log[Inhibitor] M -6.7) was 43 and 49 and the “FP53 displacement” value ([1]; Log[Inhibitor] M -7.0) was 56 and 61. The “FP53 displacement” value ([1]; Log[Inhibitor] M -7.3) was 64 and 66, the “FP53 displacement” value ([1]; Log[Inhibitor] M -7.6) was 64 and 68 and the “FP53 displacement” value ([1]; Log[Inhibitor] M -7.9) was 66 and 67. The “FP53 displacement” value ([1]; Log[Inhibitor] M -8.2) was 65 and the “FP53 displacement” value ([1]; Log[Inhibitor] M -8.5) was 69 and 66.
